Series [1] concerns Staphylococcus aureus. Nature of the series: Antimicrobial activity against methicillin-susceptible Staphylococcus aureus ATCC 29213 after 16 hrs by broth microdilution method. In kind it is functional. The note with it: ATCC 29213, 16 h. On the technique in general: Broth dilution looks for growth in wells or tubes with falling amounts of substance.
For series [2], the system named is Staphylococcus aureus. Nature of the series: Antimicrobial activity against methicillin-resistant Staphylococcus aureus ATCC BAA-44 after 16 hrs by broth microdilution method. To be noted: ATCC BAA-44, 16 h. The format is functional.
The subject of series [3] is Staphylococcus aureus. Nature of the series: Antimicrobial activity against methicillin-resistant Staphylococcus aureus ATCC 33591 after 16 hrs by broth microdilution method. The note with it: ATCC 33591, 16 h. In kind it is functional.
Series [4] has as its system Staphylococcus aureus. Kind of series: Antimicrobial activity against methicillin-resistant Staphylococcus aureus ATCC 43300 after 16 hrs by broth microdilution method. The format is functional. To be noted: ATCC 43300, 16 h.
For series [5], the system named is Staphylococcus aureus. Nature of the series: Antimicrobial activity against methicillin-resistant Staphylococcus aureus ATCC 700789 after 16 hrs by broth microdilution method. To be noted: ATCC 700789, 16 h. In kind it is functional.
Series [6] concerns Staphylococcus aureus. Nature of the series: Antimicrobial activity against methicillin-resistant Staphylococcus aureus ATCC BAA-811 after 16 hrs by broth microdilution method. In kind it is functional. To be noted: ATCC BAA-811, 16 h.
The test system of series [7] is Staphylococcus aureus. Kind of series: Antimicrobial activity against methicillin-resistant Staphylococcus aureus ATCC BAA-1556 after 16 hrs by broth microdilution method. The note with it: ATCC BAA-1556, 16 h. In kind it is functional.
Series [8] deals with Staphylococcus aureus. Kind of series: Antimicrobial activity against methicillin-resistant Staphylococcus aureus ATCC BAA-1685 after 16 hrs by broth microdilution method. The format is functional. To be noted: ATCC BAA-1685, 16 h.
Series [9] has as its system Staphylococcus aureus. Nature of the series: Antimicrobial activity against methicillin-resistant Staphylococcus aureus ATCC BAA-1753 after 16 hrs by broth microdilution method. In kind it is functional. To be noted: ATCC BAA-1753, 16 h.
The subject of series [10] is Acinetobacter baumannii. Kind of series: Antimicrobial activity against multidrug-resistant Acinetobacter baumannii ATCC BAA-1605 after 16 hrs by broth microdilution method. The format is functional. To be noted: ATCC BAA-1605, 16 h.
For series [11], the system named is Pseudomonas aeruginosa. Kind of series: Antimicrobial activity against Pseudomonas aeruginosa PA14 after 16 hrs by broth microdilution method. The format is functional. To be noted: PA14, 16 h.
Series [12] concerns Staphylococcus aureus. Kind of series: Toxicity in methicillin-resistant Staphylococcus aureus ATCC 43300 assessed as inhibition of planktonic cell growth at IC50 after 2 to 24 hrs by spectrophotometry. In kind it is organism-based.
Series [13] relates to Staphylococcus aureus. Nature of the series: Antimicrobial activity against methicillin-resistant Staphylococcus aureus ATCC 43300 assessed as inhibition of biofilm formation after 24 hrs by crystal violet staining-based microscopy. The format is functional, organism-based. The note with it: ATCC 43300, 24 h.
For series [14], the system named is Staphylococcus aureus. Nature of the series: Antimicrobial activity against methicillin-resistant Staphylococcus aureus ATCC BAA-44 assessed as inhibition of biofilm formation after 24 hrs by crystal violet staining-based microscopy. The format is functional, organism-based. The note with it: ATCC BAA-44, 24 h.
The test system of series [15] is Staphylococcus aureus. Nature of the series: Antibiofilm activity against methicillin-resistant Staphylococcus aureus ATCC 43300 assessed as biofilm dispersal at 20 uM after 24 hrs by crystal violet staining-based microscopy. In kind it is functional, organism-based.
Series [16] has as its system Staphylococcus aureus. Nature of the series: Toxicity in methicillin-resistant Staphylococcus aureus ATCC BAA-44 assessed as inhibition of planktonic cell growth at IC50 after 2 to 24 hrs by spectrophotometry. In kind it is organism-based.

In brackets after ≈: the same amount, converted by molar mass. Activity calls are given as the source filed them. The rule behind the calls is not given here. Where only a bound is given, the exact number is not on record here.

A word on the MIC: it is the lowest concentration found to suppress growth. One may read the IC50 as the concentration needed to halve the response being measured. Turning to `CCCCCc1ccc(C(=O)Nc2ccc3c(c2)nc(N)n3CCc2c[nH]c3ccccc23)cc1.Cl`, the MIC amounted to 16 mg/L in series [1]; 16 mg/L in [2]; 8 mg/L in series [3]; 16 mg/L in series [4]; 16 mg/L in [5]; 8 mg/L in series [6]. Further, the MIC is 16 mg/L in series [7]; 16 mg/L in series [8]; 16 mg/L in series [9]; over 64 mg/L in series [10]; over 64 mg/L in [11]. For the same molecule, the Activity entry in series [12] and in series [16] was “Toxic” in each case. The figures for the IC50 in [13] and in [14] were 3.7 µM and 4.4 µM, respectively. Moreover, in series [15], the outcome was inactive.

`CCCCCCCCCCCCn1c(N)nc2cc(NC(=O)c3ccc(CCCCC)cc3)ccc21.Cl`: the MIC in [1], in series [2], in series [3], in [4], in [5] and in series [6] was over 64 mg/L throughout. The MIC in series [7], in [8], in series [9], in series [10] and in [11] was over 64 mg/L in each case. Moreover, the IC50 in [13] and in [14] was over 20 µM throughout. For the same molecule, the outcome in series [15] was inactive.

In the case of `CCCCCc1ccc(C(=O)Nc2ccc3c(c2)nc(N)n3Cc2ccc(OC)cc2)cc1.Cl`, the MIC in series [1] is over 64 mg/L; in [2], 16 mg/L; in series [3] it was 16 mg/L; in series [4], 16 mg/L; in [5] it was 16 mg/L; in series [6] it was 16 mg/L. The MIC in series [7] was 16 mg/L; in series [8], 16 mg/L; in series [9] it was over 64 mg/L; in series [10], over 64 mg/L; in series [11], over 64 mg/L. The Activity entry is reported as “Non-toxic” in series [12] and “Toxic” in series [16]. For the same molecule, the IC50 in series [13] is 5.7 µM; in [14], 11.5 µM. Besides, the result in [15] was inactive.

Regarding `CCCCCc1ccc(C(=O)Nc2ccc3c(c2)nc(N)n3CCCc2ccccc2)cc1.Cl`, the minimal inhibitory concentration (MIC) in series [1] was determined as 16 mg/L; in series [2], 32 mg/L; in series [3], 16 mg/L; in series [4], 16 mg/L; in [5], 32 mg/L; in series [6], 16 mg/L. Moreover, the MIC is 16 mg/L in series [7]; 32 mg/L in [8]; 32 mg/L in series [9]; over 64 mg/L in series [10]; over 64 mg/L in series [11]. In addition, the Activity result in [12] and in series [16] was “Non-toxic” in each case. Besides, the results for the IC50 in series [13] and in series [14] were 4.7 µM and 5.2 µM, respectively. Besides, in [15], the outcome was inactive.

On to `CCCCCc1ccc(C(=O)Nc2ccc3c(c2)nc(N)n3C(C)C)cc1.Cl`, for which the MIC in series [1], in [2], in series [3], in series [4], in series [5] and in series [6] was 16 mg/L in each case. Besides, the MIC in series [7] was 8 mg/L; in series [8], 8 mg/L; in [9] it was 16 mg/L; in series [10] it was 32 mg/L; in [11], over 64 mg/L. Also, the Activity result in series [12] and in [16] was “Non-toxic” in each case. Further, the IC50 in series [13] came out at 7.9 µM; in series [14], 9.4 µM. Moreover, the result in series [15] was inactive.

As to `CCCCCc1ccc(C(=O)Nc2ccc3c(c2)nc(N)n3CCc2ccccn2)cc1.Cl`, the MIC in [1] amounted to 32 mg/L; in [2], 32 mg/L; in [3], 32 mg/L; in series [4] it was 64 mg/L; in series [5], 32 mg/L; in series [6] it was 32 mg/L. Also, the MIC was 32 mg/L in series [7]; 64 mg/L in series [8]; 32 mg/L in [9]; over 64 mg/L in series [10]; over 64 mg/L in series [11]. For the same molecule, the Activity entry in [12] and in series [16] was “Non-toxic” each time. Moreover, the IC50 came to 7.2 µM in series [13] and 8.9 µM in series [14]. The result in [15] was inactive.

Regarding `CCCCCc1ccc(C(=O)Nc2ccc3c(c2)nc(N)n3CCc2nc3ccccc3[nH]2)cc1.Cl`, the MIC in [1] was over 64 mg/L; in series [2], over 64 mg/L; in [3], 64 mg/L; in series [4], over 64 mg/L; in series [5], over 64 mg/L; in [6] it was over 64 mg/L. Also, the MIC in series [7] is 64 mg/L; in series [8], over 64 mg/L; in series [9], over 64 mg/L; in [10], over 64 mg/L; in series [11], over 64 mg/L. For the same molecule, in series [12], the Activity entry was “Non-toxic”. In addition, the figures for the IC50 in series [13] and in [14] were 7 µM and over 20 µM, respectively. Moreover, the outcome in series [15] was inactive.

As for `CCCCCc1ccc(C(=O)Nc2ccc3c(c2)nc(N)n3C)cc1.Cl`, the MIC in [1] turned out to be 16 mg/L; in [2], 32 mg/L; in series [3] it was 32 mg/L; in series [4] it was 16 mg/L; in series [5] it was 64 mg/L; in [6], 64 mg/L. In addition, the MIC turned out to be 32 mg/L in series [7]; 16 mg/L in [8]; 8 mg/L in series [9]; 64 mg/L in [10]; 64 mg/L in [11]. The IC50 in series [13] and in series [14] was over 20 µM each time. Further, in series [15], the outcome was inactive.

In the case of `CCCCCc1ccc(C(=O)Nc2ccc3c(c2)nc(N)n3CCc2cccc3ccccc23)cc1.Cl`, the minimum inhibitory concentration (MIC) in series [1] was over 64 mg/L; in series [2], over 64 mg/L; in series [3], 64 mg/L; in series [4] it was over 64 mg/L; in [5] it was over 64 mg/L; in [6] it was over 64 mg/L. The MIC in [7], in series [8], in [9], in series [10] and in series [11] was over 64 mg/L each time. Moreover, the IC50 in series [13] and in [14] was over 20 µM throughout. In series [15], the result was inactive.

In the case of `CCCCCc1ccc(C(=O)Nc2ccc3[nH]c(N)nc3c2)cc1`, the MIC in series [1] is 16 mg/L (≈ 49.6 µM); in [2], 8 mg/L (≈ 24.8 µM); in [3] it was 16 mg/L (≈ 49.6 µM); in series [4], 16 mg/L (≈ 49.6 µM); in series [5], 8 mg/L (≈ 24.8 µM); in [6], 8 mg/L (≈ 24.8 µM). The MIC in [7] came out at 8 mg/L (≈ 24.8 µM); in series [8], 16 mg/L (≈ 49.6 µM); in series [9], 8 mg/L (≈ 24.8 µM); in series [10] it was 16 mg/L (≈ 49.6 µM); in series [11], 16 mg/L (≈ 49.6 µM). For the same molecule, the Activity entry in [12] is “Toxic”. Also, the IC50 is 13.9 µM in series [13] and over 20 µM in series [14].

On to `CCCCCc1ccc(C(=O)Nc2ccc3c(c2)nc(N)n3-c2ccc(CCCCC)cc2)cc1.Cl`, for which the minimum inhibitory concentration (MIC) in series [1] was 64 mg/L; in series [2], over 64 mg/L; in [3], over 64 mg/L; in [4], over 64 mg/L; in series [5], over 64 mg/L; in series [6], over 64 mg/L. The MIC is over 64 mg/L in series [7]; 64 mg/L in [8]; 64 mg/L in series [9]; over 64 mg/L in [10]; over 64 mg/L in series [11]. Also, the IC50 in [13] and in series [14] was over 20 µM throughout. The result in [15] was inactive.
